Patent publication US6949381B2, “Immortalized human skin cell lines and novel serum-free medium useful for the production thereof” (Nestec S.A., priority 1995, dated 2005)

Key:
Assay type in all cases: cell-based, Human
collagenase (type I) = test: Collagenase (type I) expression after phorbol ester treatment; conditions: immortalized keratinocytes treated with phorbol esters
normal keratinocytes = test: Keratinocyte growth in serum-free media (cell count, FIG. 1); conditions: serum free medium
Source text: FIG. 1 compares the growth (in terms of cell number) of non-immortalized DKO-NR keratinocytes in three different media, i.e., NR-3, epinephrine-supplemented modified MCDB 153 and MCDB 153 after 6 days.
• 1) Characterization of Keratinocytes Growth in Serum-free Media: primary cell cultures were cultivated in modified MCDB 153 [Boyce et al., J. Tissue Cult. Meth., 9:83-93 (1985); and Pittlekow et al., J. Invest. Dermatol., 86:410-417, 1986] and NR-3 media.
FIG. 1 comprises cell growth in NR-3 and epinephrine-supplemented modified MCDB 153 (keratinocyte growth medium) after 6 days. The modified MCDB 153 medium refers to modified MCDB 153. Keratinocytes were harvested in trypsin/EDTA (0.05%/0.01%) and counted by using a hemocytometer. […] In particular, the results shown in Table 2 compare the growth of keratinocytes in coated and uncoated culture plates. 100,000 keratinocytes were seeded on 3.5 cm plates containing NR-3 medium.

[1] = system: melanocytes (DM2-NR, normal); test: Induction/inhibition of melanin synthesis in melanocytes; conditions: T-Ag expressing melanocyte lines (especially DM2-NR), comparable to normal cells
Description: The melanocytes were treated with the melanogensis inducers tyrosin and theophylline and the melanogenesis inhibitor kojic acid.

| Compound | induction/inhibition of melanogenesis [1] | further results |
| --- | --- | --- |
| CCCCCCCCCCCCCC(=O)O[C@@H]1[C@@H](C)[C@@]2(O)[C@@H](C=C(CO)C[C@]3(O)C(=O)C(C)=C[C@@H]23)[C@@H]2C(C)(C)[C@]12OC(C)=O [PMA, phorbol-12-myristate-13-acetate] | – | collagenase (type I) expression (collagenase (type I)): increase of collagenase (type I) expression |
| CNC[C@H](O)c1ccc(O)c(O)c1 [epinephrine] | – | growth of normal keratinocytes (normal keratinocytes): strong growth factor of normal keratinocytes |
| O=c1cc(CO)occ1O [kojic acid] | dose dependent | – |
| Cn1c(=O)c2[nH]cnc2n(C)c1=O [theophylline] | dose dependent | – |
| N[C@@H](Cc1ccc(O)cc1)C(=O)O [tyrosin] | dose dependent | – |
